tested on: Human Umbilical Vein Endothelial cells (VEGF-stimulated HUVEC proliferation); assay: HUVEC Proliferation Assay (VEGF-stimulated); format: cell-based; settings: VEGF 50 ng/mL, 72 h incubation, CyQuant readout, read-out: inhibited VEGF-stimulated HUVEC proliferation at a level below (IC50)
Procedure, shortened: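 Pooled-donor HUVECs (passage 2–3) seeded in DMEM+10% FBS for 22 h, then pre-treated 2–3 h with five-point, five-fold compound dilutions (0.25% DMSO final). Stimulated with 50 ng/mL VEGF (bFGF 20 ng/mL on separate plates) for 72 h at 37 °C. CyQuant fluorescence (485/530 nm) after freeze-thaw; IC50 from 4-parameter fit.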

| SMILES | IC50 [µM] |
| --- | --- |
| CN1CC=C(c2cc(NC(=O)c3cccnc3Nc3ccc4cn[nH]c4c3)cc(C(F)(F)F)c2)CC1 [Example 121, 2-(1H-Indazol-6-ylamino)-N-[3-(1-methyl-1,2,3,6-tetrahydro-pyridin-4-yl)-5-trifluoromethyl-phenyl]-nicotinamide] | < 0.05 |
| O=C(Nc1ccc(C(F)(F)C(F)(F)F)cc1)c1cccnc1Nc1ccc2cn[nH]c2c1 [Example 123, 2-(1H-Indazol-6-ylamino)-N-(4-pentafluoroethyl-phenyl)-nicotinamide] | < 0.05 |
| CC(C)(C)c1ccc(NC(=O)c2cccnc2Nc2ccc3cn[nH]c3c2)cc1NC1CCNCC1 [Example 124, N-[4-tert-Butyl-3-(piperidin-4-ylamino)-phenyl]-2-(1H-indazol-6-ylamino)-nicotinamide] | < 0.05 |
| O=C(Nc1cc(CN2CCNCC2)cc(C(F)(F)F)c1)c1cccnc1Nc1ccc2cn[nH]c2c1 [Example 125, 2-(1H-Indazol-6-ylamino)-N-(3-piperazin-1-ylmethyl-5-trifluoromethyl-phenyl)-nicotinamide] | < 0.05 |
| CC1(C)CNCc2cc(NC(=O)c3cccnc3Nc3ccc4cn[nH]c4c3)ccc21 [Example 126, N-(4,4-Dimethyl-1,2,3,4-tetrahydro-isoquinolin-7-yl)-2-(1H-indazol-6-ylamino)-nicotinamide] | < 0.05 |
| CC1(C)CC(=O)Nc2cc(NC(=O)c3cccnc3Nc3ccc4cn[nH]c4c3)ccc21 [Example 575, N-(4,4-Dimethyl-2-oxo-1,2,3,4-tetrahydro-quinolin-7-yl)-2-(1H-indazol-6-ylamino)-nicotinamide] | < 0.05 |
| CN1CCC[C@@H]1COc1cc(NC(=O)c2cccnc2Nc2ccc3cn[nH]c3c2)cc(C(F)(F)F)c1 [Example 577, 2-(1H-Indazol-6-ylamino)-N-(3-((((2R)-1-methyl-2-pyrrolidinyl)methyl)oxy)-5-(trifluoromethyl)phenyl)-3-pyridinecarboxamide] | < 0.05 |
| CC(=O)N1CCC[C@@H]1COc1cc(NC(=O)c2cccnc2Nc2ccc3cn[nH]c3c2)cc(C(F)(F)F)c1 [Example 580, N-(3-((((2R)-1-Acetyl-2-pyrrolidinyl)methyl)oxy)-5-(trifluoromethyl)phenyl)-2-(1H-indazol-6-ylamino)-3-pyridinecarboxamide] | < 0.05 |
| O=C(Nc1cc(NC(=O)c2cccnc2Nc2ccc3cn[nH]c3c2)cc(C(F)(F)F)c1)O[C@H]1CCOC1 [Example 581, (3S)-Tetrahydro-3-furanyl 3-(((2-(1H-indazol-6-ylamino)-3-pyridinyl)carbonyl)amino)-5-(trifluoromethyl)phenylcarbamate] | < 0.05 |
| CC(C)N1CCC[C@H]1COc1cc(NC(=O)c2cccnc2Nc2ccc3cn[nH]c3c2)cc(C(F)(F)F)c1 [Example 583, 2-(1H-Indazol-6-ylamino)-N-(3-((((2S)-1-(1-methylethyl)-2-pyrrolidinyl)methyl)oxy)-5-(trifluoromethyl)phenyl)-3-pyridinecarboxamide] | < 0.05 |
| CS(=O)(=O)Nc1cc(NC(=O)c2cccnc2Nc2ccc3cn[nH]c3c2)cc(C(F)(F)F)c1 [Example 586, 2-(1H-Indazol-6-ylamino)-N-(3-((methylsulfonyl)amino)-5-(trifluoromethyl)phenyl)-3-pyridinecarboxamide] | < 0.05 |
| CC(C)(C)c1ccc(NC(=O)c2cccnc2Nc2ccc3cn[nH]c3c2)cc1NC(=O)CN1CCCC1 [Example 587, N-(4-(1,1-Dimethylethyl)-3-((1-pyrrolidinylacetyl)amino)phenyl)-2-(1H-indazol-6-ylamino)-3-pyridinecarboxamide] | < 0.05 |
| CC(C)(C)c1ccc(NC(=O)c2cccnc2Nc2ccc3cn[nH]c3c2)cc1NC(=O)CN1CCOCC1 [Example 588, N-(4-(1,1-Dimethyl)-3-((4-morpholinylacetyl)amino)phenyl)-2-(1H-indazol-6-ylamino)-3-pyridinecarboxamide] | < 0.05 |
| CC1(C)CC(=O)Nc2nc(NC(=O)c3cccnc3Nc3ccc4cn[nH]c4c3)ccc21 [Example 593, N-(5,5-Dimethyl-7-oxo-5,6,7,8-tetrahydro-[1,8]naphthyridin-2-yl)-2-(1H-indazol-6-ylamino)-nicotinamide] | < 0.05 |
| CC1(C)CNCc2cc(NC(=O)c3cccnc3Nc3ccc4[nH]c(=O)[nH]c4c3)ccc21 [Example 594, N-(4,4-Dimethyl-1,2,3,4-tetrahydro-isoquinolin-7-yl)-2-(2-oxo-2,3-dihydro-1H-benzoimidazol-5-ylamino)-nicotinamide] | < 0.05 |
| CC(C)(C)c1ccc(NC(=O)c2cccnc2Nc2cccc3c2CNC3=O)cc1 [Example 600, N-(4-tert-Butyl-phenyl)-2-(1-oxo-2,3-dihydro-1H-isoindol-4-ylamino)-nicotinamide] | < 0.05 |
| O=C(Nc1ccc(C(F)(F)C(F)(F)F)cc1)c1cccnc1Nc1cccc2c1CNC2=O [Example 602, 2-(1-Oxo-2,3-dihydro-1H-isoindol-4-ylamino)-N-(4-pentafluoroethyl-phenyl)-nicotinamide] | < 0.05 |
| CN1CCC(C(C)(C)c2ccc(NC(=O)c3cccnc3Nc3cccc4c3CNC4=O)cc2)CC1 [Example 603, N-{4-[1-Methyl-1-(1-methyl-piperidin-4-yl)-ethyl]-phenyl}-2-(1-oxo-2,3-dihydro-1H-isoindol-4-ylamino)-nicotinamide] | < 0.05 |
| O=C(Nc1ccc(C(OC[C@@H]2CCCN2)(C(F)(F)F)C(F)(F)F)cc1)c1cccnc1Nc1ccc2cn[nH]c2c1 [Example 607, 2-(1H-Indazol-6-ylamino)-N-{4-[2,2,2-trifluoro-1-(pyrrolidin-2-ylmethoxy)-1-trifluoromethyl-ethyl]-phenyl}-nicotinamide] | < 0.05 |
| O=C(Nc1ccc(C(O)(C(F)(F)F)C(F)(F)F)cc1)c1cccnc1Nc1cccc2c1CNC2=O [Example 608, 2-(1-Oxo-2,3-dihydro-1H-isoindol-4-ylamino)-N-[4-(2,2,2-trifluoro-1-hydroxy-1-trifluoromethyl-ethyl)-phenyl]-nicotinamide] | < 0.05 |
| O=C(Nc1cccc(C(O)(C(F)(F)F)C(F)(F)F)c1)c1cccnc1Nc1cccc2c1CNC2=O [Example 609, 2-(1-Oxo-2,3-dihydro-1H-isoindol-4-ylamino)-N-[3-(2,2,2-trifluoro-1-hydroxy-1-trifluoromethyl-ethyl)-phenyl]-nicotinamide] | < 0.05 |
| CN(C)CC(=O)Nc1cc(NC(=O)c2cccnc2Nc2ccc3cn[nH]c3c2)ccc1C(C)(C)C [Example 613, N-(4-(1,1-Dimethylethyl)-3-((N,N-dimethylglycyl)amino)phenyl)-2-(1H-indazol-6-ylamino)-3-pyridinecarboxamide] | < 0.05 |
| CN1CCC[C@H]1COc1cc(NC(=O)c2cccnc2Nc2ccc3cn[nH]c3c2)ccc1C(F)(F)F [Example 616, 2-(1H-indazol-6-ylamino)-N-(3-((((2S)-1-methyl-2-pyrrolidinyl)methyl)oxy)-4-(trifluoromethyl)phenyl)-3-pyridinecarboxamide] | < 0.05 |
| CC1(C)CN(S(C)(=O)=O)c2cc(NC(=O)c3cccnc3Nc3ccc4cn[nH]c4c3)ccc21 [Example 625, N-(3,3-dimethyl-1-(methylsulfonyl)-2,3-dihydro-1H-indol-6-yl)-2-(1H-indazol-6-ylamino)-3-pyridinecarboxamide] | < 0.05 |
| CC1(C)CCNc2cc(NC(=O)c3cccnc3Nc3ccc4c(c3)C(=O)NC4)ccc21 [Example 629, N-(4,4-Dimethyl-1,2,3,4-tetrahydro-isoguinolin-7-yl)-2-(1-oxo-2,3-dihydro-1H-isoindol-4-ylamino)-nicotinamide] | < 0.05 |
| CC1(C)CN(C(=O)[C@@H]2CCCN2)c2cc(NC(=O)c3cccnc3Nc3ccc4cn[nH]c4c3)ccc21 [Example 631, N-[3,3-Dimethyl-1-(pyrrolidine-2-carbonyl)-2,3-dihydro-1H-indol-6-yl]-2-(1H-indazol-6-ylamino)-nicotinamide] | < 0.05 |

Reference: US7102009B2, “Substituted amine derivatives and methods of use” (Amgen Inc., priority 2001, dated 2006)
